Experimental data: patent US8580789B2, “Treating glaucoma” (The Cleveland Clinic Foundation, priority 2007, dated 2013)

Experiments:
[1] = tested on: optic nerve/lamina cribrosa complex; experiment: Surface wave velocity (stiffness) across the optic nerve/lamina cribrosa complex of whole globes, Sonic Eye elastometer; parameters: species or system porcine; conditions: for Mean ON/LCC Stiffness, After Glutaraldehyde Crosslinking: Example 2, GTA annular sponge on PS only ~30 min
Protocol: Surface wave velocity (SWV) is a measure of tissue stiffness, and is performed by detecting the velocity of an ultrasonic wave between 2 points (Sonic Eye, Priavision, Menlo Park, Calif.) (Dupps W J, et al., J Refract Surg; 23: 66-75 (2007)). 19 porcine eyes were divided into 2 groups. In group 1 (6 eyes), the SWV across the exposed optic nerve/lamina cribrosa complex (ON/LCC) was initially measured at the eyes' physiologic IOP and at 100 mmHg. The porcine globes were cannulated with IV tubing to facilitate the change in IOP. In group 2 (13 eyes), the pre-treatment SWV was measured across the same region and atop the peri-papillary sclera, after which both regions were treated with riboflavin 1%, Q 5 min×6, and UVA irradiation (˜365 nm at 3 mW/cm^2) for 30 min per eye. The SWV was then re-measured in each eye at the pre-treatment IOP and at 100 mmHg.
An annular sponge soaked in GTA was exposed to the peripapillary sclera for ˜30 minutes, and not the ON/LCC. Measurements were repeated as above, but also along each quadrant of peripapillary sclera to ensure uniformity and symmetry of crosslinking around the ON/LCC. The results are summarized as follows:
Eighteen porcine globes were divided evenly into 3 groups. The optic nerves were transected to expose the ON/LC, and each globe was infused through an in-line pressure transducer for direct IOP control. Surface wave velocity, a non-destructive measure of tissue stiffness, was measured across the ON/LC and PS before and after collagen crosslinking at IOP of 10 and 30 mmHg (groups 1 and 2) and at each globe's preinflation IOP and 80 mmHg (group 3). In group 3, papillary strain was measured by analyzing the displacement of fiducial marks immediately adjacent to the ON/LC using digital photography.
Surface wave velocity (SWV) is a measure of tissue stiffness that has been used in dermatologic applications to measure age-related changes (Potts R O, et al., J Invest Dermatol.; 82(1):97-100 (1984); Potts R O, et al., J Biomech.; 16(6):365-372 (1983); Davis B R, et al., Exp Gerontol; 24(3):201-210 (1989)), softening effects of tissue hydration and skin creams (Vexler A, et al., J Invest Dermatol; 113(5):732-739 (1999)), and sclerosing effects of radiation on breast skin (Gorodetsky R, et al., Int J Radiat Oncol Biol Phys.; 45(4):893-900 (1999)). When acoustic waves in the 0.5 to 30 kHz frequency range are used, propagation speed in skin is related to the density and stiffness of the tissue (Pereira J M, et al., J Biomech.; 23(8):745-751 (1990)). A prototype handheld ocular surface elastometer (Sonic Eye, Priavision, Menlo Park, Calif.) with an operating frequency within this range (4 kHz) and a fixed 4.5 mm wave propagation distance has been described in detail elsewhere (Dupps W J Jr, et al., J Refract Surg.; 23(1):66-75 (2007)). The Sonic Eye was used in this study as a non-destructive means of measuring local in situ tissue stiffness across and around the optic nerve head.
Eighteen porcine eyes were obtained from a local abattoir (Heffelfingers Meats, Inc., Jeromesville, Ohio) and were used within 24 hours postmortem. The optic nerves were dissected under microscopic visualization to expose the ON/LC (FIG. 1). […]
Three experimental groups of 6 eyes each were defined. In group 1, SWV across the optic nerve/lamina cribrosa complex and peripapillary scleral regions of interest were measured at 10 and 30 mmHg to represent a physiological range of pressures. […]

peripapillary sclera = experiment: Estimate of PS ring elastic (secant) modulus by LaPlace equation and measured strain; parameters: species or system porcine
Description: By a similar analysis of strain across the ON in the same eyes, the pressure-induced change in ON diameter was 10.5±3.9% horizontally and 9.4±6.5% vertically prior to crosslinking. The combined vertical and horizontal strain averaged 7.3±4.4% across the PS ring and 10.2±5.4% across the ON/LC region alone (p=0.22). […] The native stiffness value compares favorably to the porcine scleral modulus of 500 kPa measured by Pierscionek B K, et al., Br J Opthalmol.; 91(6):801-803 (2007) particularly since their measurement was obtained at a lower peak pressure (50 mmHg) and was obtained from the entire sclera, which incorporates the thinner and effectively more elastic sclera anterior to the posterior pole (Olsen T W, et al., Invest Opthalmol Vis Sci; 43(8):2529-2532 (2002)).
The elastic modulus (E) of peripapillary sclera (PS) in Group 3 was estimated before and after crosslinking. First, measured PS strain was […] the circumferential stress as derived from the LaPlace equation, σ=IOP×R/2t, where σ indicates the circumferential stress as a function of IOP, scleral radius of curvature (R), and sclera thickness (t). […]

## O=CCCCC=O [GTA, glutaraldehyde]
[1]; mean IOP 3 mmHg
  Mean ON/LCC Stiffness, After Glutaraldehyde Crosslinking: 29.5 m/s
[1]; mean IOP 80 mmHg
  Mean ON/LCC Stiffness, After Glutaraldehyde Crosslinking: 29.3 m/s
[1]; Example 3 Group 3, 4% GTA on PS only 30 min, Low IOP = pre-inflation 2-4 mmHg
  Stiffness of Optic Nerve/Lamina Cribrosa Complex, Post-crosslinking Mean ± SD: 29.5±2.9 m/s
Peripapillary sclera; Group 3, GTA, stress increment 4 to 80 mmHg divided by crosslinked strain
  PS ring elastic modulus after crosslinking (estimate): 16.1 MPa
Peripapillary sclera; glutaraldehyde-mediated crosslinking, estimate
  Increase in stiffness (elastic modulus) of peripapillary sclera with crosslinking: ~20 fold
